Laboratory results from publication PMC12635268, “Novel antimicrobial peptides and peptide-microbiome crosstalk in Appalachian salamander skin” (NPJ Biofilms and Microbiomes, 2025).

Tests used:
Test in all cases: microbe, parasite or virus in culture
S. aureus ATCC 25923 = conditions: S. aureus 25923
Outline: (§1)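 Peptides tested 0.25–128 μg/mL (2-fold dilutions, TFA/BSA carrier) against 1 × 10⁵ CFU/mL inoculum in CAMHB, duplicates.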

[1] = tested on: K. pneumoniae ATCC 700603; conditions: K. pneumoniae 700603
Outline: as §1

P. aeruginosa ATCC 27853 = conditions: P. aeruginosa 27853
Outline: as §1

E. faecium ATCC 49224 = conditions: E. faecium 49224
Outline: as §1

P. aeruginosa MRSN 5519 = conditions: P. aeruginosa 5519
Outline: as §1

E. coli ATCC 35218 = conditions: E. coli 35218
Outline: as §1

E. faecium ATCC 19434 = conditions: E. faecium 19434
Outline: as §1

A. baumannii ATCC 19606 = conditions: A. baumannii 19606
Outline: as §1

K. pneumoniae ATCC 13883 = conditions: K. pneumoniae 13883
Outline: as §1

S. aureus ATCC 43300 = conditions: S. aureus 43300
Outline: as §1

P. aeruginosa PA01 (Si) = assay type: cell-based; conditions: P. aeruginosa PA01 (Si), not typical ESKAPEE strain
Source text: Supplement 41522_2025_837_MOESM13_ESM.xlsx, sheet "Table_S13_ESKAPEE-MIC" | column: Bacterial MIC (µg/mL)

P. aeruginosa PA01 = assay type: cell-based
Outline: as §1

[2] = CAMHB, 1 × 10⁵ CFU/mL, 0.25 to 128 μg/mL, 37 °C 20 h, duplicate, read visually (CLSI)

CC[C@H](C)[C@H](NC(=O)[C@H](CCCCN)NC(=O)[C@H](CCC(=O)O)NC(=O)[C@H](CCCCN)NC(=O)[C@H](CO)NC(=O)[C@H](CCCCN)NC(=O)[C@H](CCCNC(=N)N)NC(=O)[C@H](Cc1ccccc1)NC(=O)[C@H](Cc1ccccc1)NC(=O)[C@H](CC(=O)O)NC(=O)CNC(=O)[C@H](CC(C)C)NC(=O)[C@@H](N)CC(C)C)C(=O)NCC(=O)N[C@@H](CCCCN)C(=O)N[C@@H](CCC(=O)O)C(=O)N[C@@H](Cc1ccccc1)C(=O)N[C@@H](CCCCN)C(=O)N[C@@H](CCCNC(=N)N)C(=O)N[C@H](C(=O)N[C@H](C(=O)N[C@@H](CCC(N)=O)C(=O)N[C@@H](CCCNC(=N)N)C(=O)N[C@H](C(=O)N[C@@H](CCCCN)C(=O)N[C@@H](CC(=O)O)C(=O)N[C@@H](Cc1ccccc1)C(=O)N[C@@H](CC(C)C)C(=O)N[C@@H](CCCNC(=N)N)C(=O)N[C@@H](CC(N)=O)C(=O)N[C@@H](CC(C)C)C(=O)N[C@H](C(=O)N1CCC[C@H]1C(=O)N[C@@H](CCCNC(=N)N)C(=O)N[C@H](C(=O)N[C@@H](CCC(=O)O)C(=O)N[C@@H](CO)C(=O)O)[C@@H](C)O)C(C)C)[C@@H](C)CC)C(C)C)[C@@H](C)CC [LL-37, reference compound]
8 µg/mL: MIC (P. aeruginosa ATCC 27853; [2]) | Bacterial MIC (P. aeruginosa ATCC 27853; Week 1 (12/6/2023)) | Bacterial MIC (P. aeruginosa ATCC 27853; Week 2 (12/14/2023)) | MIC (E. coli ATCC 35218; [2]) | Bacterial MIC (E. coli ATCC 35218; Week 2 (12/14/2023)) | Bacterial MIC (K. pneumoniae ATCC 13883; Week 2 (12/14/2023))
16 µg/mL: MIC (P. aeruginosa MRSN 5519; [2]) | Bacterial MIC (P. aeruginosa MRSN 5519; Week 1 (12/6/2023)) | Bacterial MIC (P. aeruginosa MRSN 5519; Week 2 (12/14/2023)) | Bacterial MIC (P. aeruginosa PA01; P. aeruginosa 15692 (PAO1), Week 2 (12/14/2023))
4 µg/mL: MIC (K. pneumoniae ATCC 13883; [2]) | Bacterial MIC (K. pneumoniae ATCC 13883; Week 1 (12/6/2023)) | Bacterial MIC (P. aeruginosa PA01 (Si); Week 1 (12/6/2023)) | MIC (P. aeruginosa PA01; P. aeruginosa PA01, CAMHB, 1 × 10⁵ CFU/mL, 0.25 to 128 μg/mL, 37 °C 20 h, duplicate, read visually (CLSI))
32 µg/mL: MIC [1, 2] | Bacterial MIC ([1]; Week 1 (12/6/2023)) | MIC (E. faecium ATCC 49224; [2]) | Bacterial MIC (E. faecium ATCC 49224; Week 1 (12/6/2023)) | MIC (E. faecium ATCC 19434; [2]) | Bacterial MIC (E. faecium ATCC 19434; Week 1 (12/6/2023))
2 µg/mL: MIC (A. baumannii ATCC 19606; [2]) | Bacterial MIC (A. baumannii ATCC 19606; Week 1 (12/6/2023))
64 µg/mL: Bacterial MIC (E. faecium ATCC 49224; Week 2 (12/14/2023)) | Bacterial MIC (E. faecium ATCC 19434; Week 2 (12/14/2023))
>128.000 µg/mL: Bacterial MIC (S. aureus ATCC 25923; Week 1 (12/6/2023)) | Bacterial MIC (S. aureus ATCC 25923; Week 2 (12/14/2023)) | Bacterial MIC (S. aureus ATCC 43300; Week 1 (12/6/2023)) | Bacterial MIC (S. aureus ATCC 43300; Week 2 (12/14/2023))
>128 µg/mL: MIC (S. aureus ATCC 25923; [2]) | MIC (S. aureus ATCC 43300; [2])
4 to 8 µg/mL: Bacterial MIC (P. aeruginosa PA01 (Si); Week 2 (12/14/2023))
